Reference: EP4653451A1, “POLYPEPTIDE COMPOUND AND USE THEREOF” (Chengdu New Radiomedicine Technology Co., Ltd., priority 2023, dated 2024)
Where a name gives a salt, the structure may show the parent alone.

Key:
[1] = target: T1, human recombinant FAP protein (Homo sapiens, UniProt Q12884); experiment: Inhibitory activity against FAP protease activity (Z-Gly-Pro-AMC fluorescence); format: biochemical; settings: 125 pM FAP working solution, 90 min at room temperature; read-out: FAP IC50
T1 construct: purchased Acrobiosystems FAP-H82Q6
T1 sequence (Q12884 1-760): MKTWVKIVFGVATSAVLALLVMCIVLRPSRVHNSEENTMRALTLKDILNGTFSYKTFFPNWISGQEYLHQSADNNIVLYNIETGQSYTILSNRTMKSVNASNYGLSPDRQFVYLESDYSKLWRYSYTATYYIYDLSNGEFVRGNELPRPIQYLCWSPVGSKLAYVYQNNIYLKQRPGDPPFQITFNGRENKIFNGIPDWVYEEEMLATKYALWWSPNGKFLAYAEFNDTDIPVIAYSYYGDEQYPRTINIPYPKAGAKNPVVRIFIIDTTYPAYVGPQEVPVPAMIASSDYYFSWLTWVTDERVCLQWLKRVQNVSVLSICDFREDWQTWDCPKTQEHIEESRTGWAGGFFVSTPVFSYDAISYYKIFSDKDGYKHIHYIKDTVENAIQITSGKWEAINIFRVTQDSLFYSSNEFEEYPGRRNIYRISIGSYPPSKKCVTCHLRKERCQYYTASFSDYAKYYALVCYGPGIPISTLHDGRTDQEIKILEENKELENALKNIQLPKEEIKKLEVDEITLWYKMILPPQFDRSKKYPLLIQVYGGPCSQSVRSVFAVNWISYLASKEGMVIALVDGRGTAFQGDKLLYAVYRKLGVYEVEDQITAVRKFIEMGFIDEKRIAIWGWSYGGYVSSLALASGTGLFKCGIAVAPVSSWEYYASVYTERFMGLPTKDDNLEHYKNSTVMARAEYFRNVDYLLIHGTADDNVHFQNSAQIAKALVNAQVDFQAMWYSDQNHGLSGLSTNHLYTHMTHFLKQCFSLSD
In short: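 Working solutions of 125 pM recombinant human FAP and 150 µM Z-Gly-Pro-AMC, in pH 7.5 Tris buffer with 1 M NaCl and 1 mg/mL BSA, combined with 4-fold compound dilutions and reacted 90 min at room temperature in the dark. AMC fluorescence (Ex 380/Em 460 nm) used to fit IC50.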

[2] = target: T2, human recombinant DPP4 protein (Homo sapiens, UniProt P27487); experiment: Inhibitory activity against DPP4 protease activity (H-Gly-Pro-AMC fluorescence); format: biochemical; settings: 125 pM DPP4 working solution, 90 min at room temperature
T2 construct: purchased Acrobiosystems DP4-H5211
In short: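 125 pM DPP4 working solution and 250 µM H-Gly-Pro-AMC working solution (stock levels, not final) in 20 mM Tris-HCl, 100 mM NaCl, mixed with compound in 4-fold dilution series. Reaction 90 min at room temperature in the dark; AMC fluorescence read at ex 380/em 460 nm, IC50 fitted from the concentration series.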

[3] = target: T3, human recombinant PREP protein (Homo sapiens, UniProt P48147); experiment: Inhibitory activity against PREP protease activity, reported as PREP/FAP IC50 ratio; format: biochemical; settings: ratio of PREP IC50 to FAP IC50
T3 construct: purchased R&D systems 4308-SE-010
T3 sequence (P48147 1-710): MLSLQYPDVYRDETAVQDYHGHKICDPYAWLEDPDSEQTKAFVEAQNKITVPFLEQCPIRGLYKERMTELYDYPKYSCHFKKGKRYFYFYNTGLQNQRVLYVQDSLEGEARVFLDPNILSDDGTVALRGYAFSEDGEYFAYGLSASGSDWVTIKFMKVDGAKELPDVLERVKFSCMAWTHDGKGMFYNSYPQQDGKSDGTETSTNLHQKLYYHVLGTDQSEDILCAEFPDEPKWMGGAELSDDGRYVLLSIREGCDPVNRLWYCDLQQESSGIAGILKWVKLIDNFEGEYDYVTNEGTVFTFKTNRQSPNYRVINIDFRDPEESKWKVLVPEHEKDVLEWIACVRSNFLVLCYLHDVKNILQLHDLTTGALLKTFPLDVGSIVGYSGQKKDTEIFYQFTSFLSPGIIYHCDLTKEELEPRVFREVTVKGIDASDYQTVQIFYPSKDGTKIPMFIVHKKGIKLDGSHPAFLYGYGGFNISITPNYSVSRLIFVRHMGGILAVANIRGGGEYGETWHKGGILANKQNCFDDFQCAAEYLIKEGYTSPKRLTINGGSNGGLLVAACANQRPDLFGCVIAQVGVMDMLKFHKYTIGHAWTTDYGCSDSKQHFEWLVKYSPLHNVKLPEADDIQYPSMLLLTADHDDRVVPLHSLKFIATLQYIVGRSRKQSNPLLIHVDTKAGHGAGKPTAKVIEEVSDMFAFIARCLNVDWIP
Description: The human recombinant PREP protein (R&D systems, 4308-SE-010) was formulated into a 125 pM working solution with a assay buffer (25 mM Tris-HCl, 250 mM NaCl, 2.5 mM DTT, 1 mg/mL BSA), and the PREP substrate (Z-Gly-Pro-AMC (LEONBIO, 68542-93-8)) was diluted to a 125 µM PREP substrate working solution with the assay buffer. 40 µl of PREP working solution and 20 µl of compounds at different concentrations (4-fold dilution) were taken, then 40 µl of PREP substrate working solution was added, and the mixture was uniformly mixed on a shaker at room temperature for 1 min. The uniformly mixed mixture was reacted at room temperature in the dark for 90 min. Reading was made by microplate reader at excitation and emission wavelengths of 380 nm and 460 nm. The original data was saved, and the IC50 value of the compound was obtained by analyzing the data with Graphpad PRISM.

in vitro = settings: CD-1, mouse, plasma
Description: The plasma stability experiment was performed using plasma from CD-1 mice. The compounds were diluted to a concentration of 1 mM with methanol. To 0.792 mL of plasma, 8.00 µL of 1 mM of each test compound was added, and 50.0 µL of the plasma sample was taken after uniform mixing. The remaining sample was placed in a 37°C water bath and incubated for 24 h. […] After centrifugation, the sample was diluted 1-fold with 0.2% trifluoroacetic acid and analyzed by LC-MS/MS.

T2 sequence (P27487 whole entry): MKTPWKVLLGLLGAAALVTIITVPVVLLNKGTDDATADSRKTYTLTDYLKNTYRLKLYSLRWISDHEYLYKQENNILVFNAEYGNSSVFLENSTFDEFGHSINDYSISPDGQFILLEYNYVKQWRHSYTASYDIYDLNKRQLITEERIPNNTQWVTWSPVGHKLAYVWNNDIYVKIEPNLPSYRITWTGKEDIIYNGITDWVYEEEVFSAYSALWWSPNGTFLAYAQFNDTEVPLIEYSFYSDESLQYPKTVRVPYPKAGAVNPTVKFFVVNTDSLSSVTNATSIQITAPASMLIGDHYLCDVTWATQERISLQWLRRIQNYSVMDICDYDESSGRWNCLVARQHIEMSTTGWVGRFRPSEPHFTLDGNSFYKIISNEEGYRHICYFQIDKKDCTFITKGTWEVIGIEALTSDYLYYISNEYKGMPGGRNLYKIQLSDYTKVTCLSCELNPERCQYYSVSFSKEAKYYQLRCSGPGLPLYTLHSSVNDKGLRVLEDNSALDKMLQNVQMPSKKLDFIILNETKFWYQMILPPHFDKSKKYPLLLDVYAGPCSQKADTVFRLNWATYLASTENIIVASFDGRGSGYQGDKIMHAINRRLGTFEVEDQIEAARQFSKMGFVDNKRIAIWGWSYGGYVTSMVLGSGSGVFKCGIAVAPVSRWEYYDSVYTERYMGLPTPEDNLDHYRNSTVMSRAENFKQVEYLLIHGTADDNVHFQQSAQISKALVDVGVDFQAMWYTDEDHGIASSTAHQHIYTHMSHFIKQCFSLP

Molecule	IC50 [1] [nM]	IC50 [2] [µM]	PREP/FAP [3]	remaining at 24 h, 10 µM (in vitro) [%]
CCCCCC(=O)N[C@H]1CSCc2cc(CSCCNC(=O)CN3CCN(CC(=O)O)CCN(CC(=O)O)CCN(CC(=O)O)CC3)cc(c2)CSC[C@@H](CC(=O)O)NC(=O)[C@H](Cc2ccccc2C(F)(F)F)NC(=O)[C@H](CCC(N)=O)NC(=O)[C@H]([C@@H](C)O)NC(=O)[C@@H]2CCCN2C(=O)[C@@H]2CCCN2C1=O [Compound 12, Hex-Cys-Pro-Pro-Thr-Gln- Phe(2-CF3)-beta-HomoCys (Cys bridge TBMB (DOTA-AET)) trifluoroacetate]	0.46	> 10	A (A > 10000)	94
CCCCCC(=O)N[C@H]1CSCc2cccc(c2F)CSC[C@@H](CNC(=O)C[C@H]2CC[C@H](NC(=O)CCNC(=O)CN3CCN(CC(=O)O)CCN(CC(=O)O)CCN(CC(=O)O)CC3)CC2)NC(=O)[C@H](Cc2ccccc2)NC(=O)[C@H](CCC(N)=O)NC(=O)[C@H]([C@@H](C)O)NC(=O)[C@@H]2CCCN2C(=O)[C@@H]2CCCN2C1=O [Compound 15, Hex-Cys-Pro-Pro-Thr-Gln-Phe-Cys-CH2NH-(trans-4-aminocyclohexane acetic acid-betaAla-DOTA) (Cys bridge 2,6-bis(bromomethyl)fluorobenzene) trifluoroacetate]	0.67	> 10	B (10000 > B > 3300)	93
CCCCCC(=O)N[C@H]1CSCc2cccc(c2F)CSC[C@@H](CNC(=O)C[C@@H](C)NC(=O)[C@H]2CC[C@H](CNC(=O)CN3CCN(CC(=O)O)CCN(CC(=O)O)CCN(CC(=O)O)CC3)CC2)NC(=O)[C@H](Cc2ccccc2)NC(=O)[C@H](CCC(N)=O)NC(=O)[C@H]([C@@H](C)O)NC(=O)[C@@H]2CCCN2C(=O)[C@@H]2CCCN2C1=O [Compound 16, Hex-Cys-Pro-Pro-Thr-Gln-Phe-Cys-CH2NH-(D-beta-HomoAla-tranexamic acid-DOTA) (Cys bridge 2,6-bis(bromomethyl)fluorobenzene) trifluoroacetate]	0.41	> 10	B (10000 > B > 3300)	96
Hex-Cys-Pro-Pro-Thr-Gln-Phe-Cys-CH2NH-cyclopentacarboxylic acid (Cys bridge TBMB (DOTA-AET)) trifluoroacetate [Compound 14]	–	–	B (10000 > B > 3300)	–
Hex-Cys-Pro-Pro-Thr-Gln-Phe-Cys-CH2NHAc (Cys bridge TBMB (DOTA-AET)) trifluoroacetate [Compound 10]	–	–	A (A > 10000)	–
